From patent publication US7399472B2, “Vaccines” (Smithkline Beecham Biologicals, priority 1999, dated 2008)

Experiments:
erythrocytes = experiment: Haemolysis assay for saponins; settings: substantially pure samples
Description: Fresh blood from guinea pigs is washed with phosphate buffered saline (PBS) 3 times in a desk-top centrifuge. After resuspension to the original volume the blood is further diluted 10 fold in PBS. • 2. 50 μl of this blood suspension is added to 800 μl of PBS containing two-fold dilutions of surfactant or saponin. • 3. After 8 hours the haemolysis is assessed visually or by measuring the optical density of the supernatant. The presence of a red supernatant, which absorbs light at 570 nm indicates the presence of haemolysis. • 4. The results are expressed as the concentration of the first saponin dilution at which hemolysis no longer occurs.
For the purposes of his invention the saponin adjuvant preparation is haemolytic if it lyses the erythrocytes at a concentration of less than 0.1%. As means of reference, substantially pure samples of QuilA, QS21, QS7.

influenza virus = tested on: influenza virus; design: species or system Balb/c mice; settings: mouse, in vivo
Lipo-OspA = type: in vivo, Balb/c mice; settings: 14 days after nasal boost with 5 μg lipo-OspA; 20 μg CpG 1001 and/or 5 μg QS21; compared with PBS

Compound | haemolytic saponin as defined in this assay (erythrocytes) | intranasal boosting of IgG or HAI antibodies to Flu strains (influenza virus) | intranasal boosting of systemic antibodies to Lipo-OspA (OspA specific IgG and LA2 titres) (Lipo-OspA)
C[C@@H]1CC[C@@]2(OC1)O[C@H]1[C@@H](O)[C@H]3[C@@H]4CC[C@H]5C[C@@H](O[C@@H]6O[C@H](CO)[C@H](O[C@@H]7O[C@H](CO)[C@@H](O)[C@H](O[C@@H]8OC[C@@H](O)[C@H](O)[C@H]8O)[C@H]7O[C@@H]7O[C@H](CO)[C@H](O)[C@H](O[C@@H]8O[C@H](CO)[C@@H](O)[C@H](O)[C@H]8O)[C@H]7O)[C@H](O)[C@H]6O)[C@H](O)C[C@]5(C)[C@H]4CC[C@]3(C)[C@H]1[C@@H]2C [Digitonin] | haemolytic |  | 
QS21 | haemolytic | do not improve | improve significantly
CC1(C)[C@@H](O[C@H]2O[C@H](C(=O)O)[C@@H](O)[C@H](O)[C@H]2O[C@@H]2O[C@H](C(=O)O)[C@@H](O)[C@H](O)[C@H]2O)CC[C@]2(C)[C@H]3C(=O)C=C4[C@@H]5C[C@@](C)(C(=O)O)CC[C@]5(C)CC[C@@]4(C)[C@]3(C)CC[C@@H]12 [glycyrrhizic acid] | non haemolytic |  | 
β-escin | haemolytic |  | 
